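Results reflect a 48-hour exposure of cells in 96-well plates to compound at five concentrations. GI50: concentration for 50% inhibition of growth.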 Active and inactive are the calls of the source. Rule as the data show it: active = GI50 up to about 1.1 µM and inactive = higher.
How the values were obtained:
Test in all cases: growth of human tumour cells (NCI), 48 h
UACC-62 = tested on: UACC-62
SN12C = tested on: SN12C
HT-29 = tested on: HT-29
ACHN = tested on: ACHN
SNB-75 = tested on: SNB-75
NCI-H522 = tested on: NCI-H522
NCI-H226 = tested on: NCI-H226
SK-MEL-5 = tested on: SK-MEL-5
U-251 = tested on: U-251
OVCAR-8 = tested on: OVCAR-8
SF-295 = tested on: SF-295
KM12 = tested on: KM12
COLO 205 = tested on: COLO 205
CAKI-1 = tested on: CAKI-1
M14 = tested on: M14
SW-620 = tested on: SW-620
HCT-15 = tested on: HCT-15
A549 = tested on: A549

SMILES	GI50 (UACC-62)	GI50 (SN12C)	GI50 (HT-29)	GI50 (ACHN)	GI50 (SNB-75)	GI50 (NCI-H522)	GI50 (NCI-H226)	GI50 (SK-MEL-5)	GI50 (U-251)	GI50 (OVCAR-8)	GI50 (SF-295)	GI50 (KM12)	GI50 (COLO 205)	GI50 (CAKI-1)	GI50 (M14)	GI50 (SW-620)	GI50 (HCT-15) [µM]	GI50 (A549)
C=C1CCC2C(C)(CO)C(O)CCC2(C)C1CC(O)C1=CCOC1=O (stereo unspecified)	> 100 µM (inactive)	31.4 µM (inactive)	35.7 µM (inactive)	60.7 µM (inactive)	46.9 µM (inactive)	5.36 µM (inactive)	45.2 µM (inactive)	77.1 µM (inactive)	17.3 µM (inactive)	36.1 µM (inactive)	46.2 µM (inactive)	36.1 µM (inactive)	38.5 µM (inactive)	78 µM (inactive)	47.3 µM (inactive)	19.8 µM (inactive)	27.4	55.2 µM (inactive)
C=C(c1ccccc1)C1(O)CCCCC1N (stereo unspecified)	> 100 µM (inactive)	> 100 µM (inactive)	> 100 µM (inactive)	> 100 µM (inactive)	> 85.7 µM (inactive)	> 100 µM (inactive)	> 100 µM (inactive)	> 100 µM (inactive)	> 100 µM (inactive)	> 100 µM (inactive)	> 100 µM (inactive)	> 100 µM (inactive)	> 100 µM (inactive)	> 43.2 µM (inactive)	> 100 µM (inactive)	> 100 µM (inactive)	> 100	> 100 µM (inactive)
COc1cccc2c1c1ccc3c(c1n2C)C(=O)C=CC3=O	17.1 µM (inactive)	20.3 µM (inactive)	2.43 µM (inactive)	15 µM (inactive)	0.695 µM (active)	3.89 µM (inactive)	64.3 µM (inactive)	37.8 µM (inactive)	48.5 µM (inactive)	15.3 µM (inactive)	> 100 µM (inactive)	78 µM (inactive)	6.15 µM (inactive)	3.15 µM (inactive)	14.6 µM (inactive)	12.1 µM (inactive)	17.7	> 100 µM (inactive)
C/N=C(\N)c1ccc(NC(=N)c2ccc(C(=N)Nc3ccc(/C(N)=N/C)cc3)cc2)cc1	> 100 µM (inactive)	> 100 µM (inactive)	> 100 µM (inactive)	> 100 µM (inactive)	> 100 µM (inactive)	> 100 µM (inactive)	> 100 µM (inactive)	> 100 µM (inactive)	> 100 µM (inactive)	> 100 µM (inactive)	> 100 µM (inactive)	> 100 µM (inactive)	> 100 µM (inactive)	> 100 µM (inactive)	> 100 µM (inactive)	> 100 µM (inactive)	> 100	> 100 µM (inactive)
O=C(CCC(=O)Nc1ccc(Cl)c(Cl)c1)Cc1nc2ccccc2o1	> 100 µM (inactive)	> 100 µM (inactive)	> 100 µM (inactive)	> 100 µM (inactive)	> 100 µM (inactive)	> 100 µM (inactive)	> 100 µM (inactive)	> 100 µM (inactive)	> 100 µM (inactive)	> 100 µM (inactive)	> 100 µM (inactive)	> 100 µM (inactive)	> 100 µM (inactive)	> 100 µM (inactive)	> 100 µM (inactive)	> 100 µM (inactive)	> 100	> 100 µM (inactive)
NCC1(N2CCOCC2)C2CCCC21CO (stereo unspecified)	–	> 100 µM (inactive)	> 100 µM (inactive)	> 100 µM (inactive)	> 100 µM (inactive)	> 100 µM (inactive)	> 100 µM (inactive)	> 100 µM (inactive)	> 100 µM (inactive)	> 100 µM (inactive)	> 100 µM (inactive)	> 100 µM (inactive)	> 100 µM (inactive)	> 100 µM (inactive)	> 100 µM (inactive)	> 100 µM (inactive)	> 100	> 100 µM (inactive)
Nc1ccc(C(=O)CC2(O)C(=O)Nc3c(Cl)cc(Cl)cc32)cc1 (stereo unspecified)	–	> 100 µM (inactive)	> 100 µM (inactive)	94.8 µM (inactive)	58.1 µM (inactive)	42.5 µM (inactive)	> 100 µM (inactive)	–	27.2 µM (inactive)	> 100 µM (inactive)	> 100 µM (inactive)	83 µM (inactive)	> 100 µM (inactive)	–	> 100 µM (inactive)	25.5 µM (inactive)	69.7	> 100 µM (inactive)
COC(=O)C(=O)C(C(=O)C(=O)Nc1ccccc1C(N)=O)c1nc2ccc(C(=O)c3ccccc3)cc2nc1O (stereo unspecified)	27.6 µM (inactive)	> 100 µM (inactive)	> 100 µM (inactive)	> 100 µM (inactive)	–	23.5 µM (inactive)	92.7 µM (inactive)	52.6 µM (inactive)	> 100 µM (inactive)	> 100 µM (inactive)	> 100 µM (inactive)	67.3 µM (inactive)	> 100 µM (inactive)	25.9 µM (inactive)	> 100 µM (inactive)	> 100 µM (inactive)	> 100	> 100 µM (inactive)
CC(C)(C)OC(=O)NC1CCCC1=O (stereo unspecified)	> 100 µM (inactive)	> 100 µM (inactive)	> 100 µM (inactive)	> 100 µM (inactive)	40.9 µM (inactive)	> 100 µM (inactive)	> 100 µM (inactive)	> 100 µM (inactive)	> 100 µM (inactive)	> 100 µM (inactive)	> 100 µM (inactive)	> 100 µM (inactive)	–	> 100 µM (inactive)	> 100 µM (inactive)	> 100 µM (inactive)	–	> 100 µM (inactive)
COc1ccc(C2C(C(=O)O)=C(COC(C)=O)Oc3cc4c(cc32)OCO4)c(OC)c1 (stereo unspecified)	> 100 µM (inactive)	> 100 µM (inactive)	> 100 µM (inactive)	> 100 µM (inactive)	> 100 µM (inactive)	–	–	> 100 µM (inactive)	> 100 µM (inactive)	> 100 µM (inactive)	> 100 µM (inactive)	–	> 100 µM (inactive)	> 100 µM (inactive)	> 100 µM (inactive)	> 100 µM (inactive)	> 100	> 100 µM (inactive)
CCCC/C=C/C1Cc2ccccc2CN1S(=O)(=O)c1ccc(C)cc1 (stereo unspecified)	12.7 µM (inactive)	10.6 µM (inactive)	7.8 µM (inactive)	5.24 µM (inactive)	13.3 µM (inactive)	4.31 µM (inactive)	10 µM (inactive)	3.28 µM (inactive)	11.2 µM (inactive)	11.3 µM (inactive)	13.9 µM (inactive)	9.91 µM (inactive)	7.29 µM (inactive)	–	11.4 µM (inactive)	11.2 µM (inactive)	8.39	5.33 µM (inactive)
COC(=O)C(C(=O)C(=O)Nc1ccc(C)cc1C)c1csc(-n2nc(-c3ccccc3)cc2-c2ccccc2)n1 (stereo unspecified)	61.7 µM (inactive)	> 100 µM (inactive)	31.4 µM (inactive)	53.5 µM (inactive)	6.37 µM (inactive)	> 100 µM (inactive)	80.2 µM (inactive)	–	67.5 µM (inactive)	> 100 µM (inactive)	–	65.2 µM (inactive)	> 100 µM (inactive)	> 100 µM (inactive)	> 100 µM (inactive)	> 100 µM (inactive)	52.1	> 100 µM (inactive)
CCOc1cc2ccc3c4cc(OC)c(OC)cc4cnc3c2cc1OCC	> 100 µM (inactive)	> 100 µM (inactive)	> 100 µM (inactive)	> 100 µM (inactive)	> 100 µM (inactive)	> 100 µM (inactive)	–	> 100 µM (inactive)	> 100 µM (inactive)	> 100 µM (inactive)	> 100 µM (inactive)	> 100 µM (inactive)	> 100 µM (inactive)	> 100 µM (inactive)	> 100 µM (inactive)	> 100 µM (inactive)	> 100	> 100 µM (inactive)
COC(=O)/C=C/C(=O)C1C(C(=O)OC)C2(C(=O)OC)CCC1(C(=O)OC)N2 (stereo unspecified)	> 100 µM (inactive)	–	> 100 µM (inactive)	–	–	–	–	> 100 µM (inactive)	> 100 µM (inactive)	> 100 µM (inactive)	> 100 µM (inactive)	> 100 µM (inactive)	> 100 µM (inactive)	> 100 µM (inactive)	> 100 µM (inactive)	–	> 100	> 100 µM (inactive)
O=C1C(c2ccc([N+](=O)[O-])cc2)=[N+]([O-])c2ccc([N+](=O)[O-])cc21	21 µM (inactive)	–	73.1 µM (inactive)	32.2 µM (inactive)	62.1 µM (inactive)	–	37.2 µM (inactive)	30.8 µM (inactive)	49.9 µM (inactive)	29.3 µM (inactive)	56.1 µM (inactive)	74 µM (inactive)	35.3 µM (inactive)	–	96.2 µM (inactive)	39.4 µM (inactive)	–	37.8 µM (inactive)
c1ccc(N2N=NC3C4CC(C5c6ccccc6C45)C32)cc1 (stereo unspecified)	28.1 µM (inactive)	33.6 µM (inactive)	19.6 µM (inactive)	–	35.7 µM (inactive)	20.5 µM (inactive)	37.8 µM (inactive)	18.7 µM (inactive)	32.5 µM (inactive)	57.7 µM (inactive)	38.4 µM (inactive)	39.3 µM (inactive)	41.4 µM (inactive)	31 µM (inactive)	54.1 µM (inactive)	36.6 µM (inactive)	31.3	33.8 µM (inactive)
COc1cc2c(cc1O)CCN[C@@]21CS[C@H]2c3c(OC(C)=O)c(C)c4c(c3C(COC1=O)N1C2C2NC(Cc3cc(C)c(OC)c(O)c32)[C@@H]1C#N)OCO4 (stereo partly specified)	< 0.01 µM (active)	< 0.01 µM (active)	< 0.01 µM (active)	< 0.01 µM (active)	< 0.01 µM (active)	–	< 0.01 µM (active)	< 0.01 µM (active)	< 0.01 µM (active)	–	–	–	< 0.01 µM (active)	–	< 0.01 µM (active)	< 0.01 µM (active)	< 0.01	< 0.01 µM (active)

Reference: ChEMBL document CHEMBL1201862, “PubChem BioAssay data set” (2004)
